According to patent US9873883B2, “Glyphosate resistant plants and associated methods” (Dow AgroSciences LLC, priority 2012, dated 2018):

Experiments:
[1] = target: Triticum aestivum (wheat) EPSP synthase DGT-7 v5, native (GENBANK EU977181), SEQ ID NO: 60 (Triticum aestivum, UniProt B5M6A1); assay: In vitro kinetic assay (inorganic phosphate production, malachite green); assay type: biochemical
Text: (§1) FIG. 1 depicts a partial sequence alignment of DGT-14 (SEQ ID NO:46), DGT-11 (SEQ ID NO:47), DGT-12 (SEQ ID NO:49), DGT-18 (SEQ ID NO:50), DGT-29 (SEQ ID NO:53), and DGT-30 (SEQ ID NO:52) to other EPSP synthase enzymes, such as; grg-23 (SEQ ID NO:54; derived from U.S. Pat. No. 7,834,249), CP4 (SEQ ID NO:48; GENBANK ACC NO: AEM75108.1) from Agrobacterium tumefaciens, DGT-3 (SEQ ID NO:57; GENBANK ACC NO: P17688) from Brassica napus, DGT-1 (SEQ ID NO:56) from Glycine max, DGT-7 (SEQ ID NO:55; GENBANK ACC NO: EU977181) from Triticum aestivum, and aroA (SEQ ID NO:51; Padgette et al., (1991); Eschenburg et al., (2002); Priestman et al., (2005); Haghani et al., (2008) from Escherichia coli. All six DGT enzymes (DGT-14, DGT-11, DGT-12, DGT-18, DGT-30, and DGT-29) share a conserved alanine at the aroA EPSP synthase enzyme amino acid position 96. The location of this amino acid is indicated by an asterisk, and the amino acid residue is underlined.
(§2) The location of the amino acid residue which was mutated from glycine to alanine is indicated by the first asterisk. The location of the amino acid residue which was mutated from threonine to isoleucine is indicated by the second asterisk. The location of the third amino acid residue which was mutated from proline to serine is indicated by the third asterisk.
(§3) The following Class I enzymes: DGT-1 from Glycine max, DGT-3 from Brassica napus (GENBANK ACC NO: P17688), and DGT-7 from Triticum aestivum (GENBANK ACC NO: EU977181) were used as a comparison. The Class I EPSP synthase enzymes and mutant variants thereof were synthesized and evaluated. A mutation introduced into the plant EPSP synthase enzymes consisted of the Glycine to Alanine mutation made within the EPSP synthase enzyme at a similar location as that of the G96A mutation from the E. coli version of the enzyme. In addition, Threonine to Isoleucine and Proline to Serine mutations were introduced within these Class I EPSP synthase enzymes at analogous positions as that of amino acid 97 (T to I) and amino acid 101 (P to S) in the EPSP synthase of E. coli as described in Funke et al., (2009).
(§4) Additional constructs containing the dgt-1, dgt-3 and dgt-7 were synthesized. These constructs were used for in vitro testing of the dgt-1 v5, dgt-1 v6, dgt-1 v7, dgt-1 v8, dgt-3 v6, dgt-3 v7, dgt-3 v8, dgt-7 v5, dgt-7 v6, dgt-7 v7, and dgt-7 v8 gene sequences were outsourced to GeneArt for synthesis and cloning. The synthesized genes were cloned into the pET28 expression vector. […]

[2] = target: Glycine max (soybean) EPSP synthase DGT-1 v5, native, SEQ ID NO: 59 (Glycine max, UniProt I1J7U9); assay: as above; assay type: biochemical
Text: as §1, §2, §3, §4

Chain of Triticum aestivum (wheat) EPSP synthase DGT-7 v5, native (GENBANK EU977181), SEQ ID NO: 60 (B5M6A1 entry or part of it): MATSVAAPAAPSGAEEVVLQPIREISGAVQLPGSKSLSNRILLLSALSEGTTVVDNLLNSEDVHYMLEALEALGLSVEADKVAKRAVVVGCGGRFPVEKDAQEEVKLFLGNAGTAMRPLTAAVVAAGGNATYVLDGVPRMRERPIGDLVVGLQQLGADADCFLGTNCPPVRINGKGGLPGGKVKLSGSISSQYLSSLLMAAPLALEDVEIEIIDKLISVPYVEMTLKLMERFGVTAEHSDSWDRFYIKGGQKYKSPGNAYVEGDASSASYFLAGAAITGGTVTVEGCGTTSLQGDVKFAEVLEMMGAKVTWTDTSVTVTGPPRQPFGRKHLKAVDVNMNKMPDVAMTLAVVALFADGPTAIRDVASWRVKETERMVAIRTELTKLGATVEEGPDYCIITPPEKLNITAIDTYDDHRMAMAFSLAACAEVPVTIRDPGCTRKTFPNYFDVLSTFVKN
Chain of Glycine max (soybean) EPSP synthase DGT-1 v5, native, SEQ ID NO: 59 (I1J7U9 entry or part of it): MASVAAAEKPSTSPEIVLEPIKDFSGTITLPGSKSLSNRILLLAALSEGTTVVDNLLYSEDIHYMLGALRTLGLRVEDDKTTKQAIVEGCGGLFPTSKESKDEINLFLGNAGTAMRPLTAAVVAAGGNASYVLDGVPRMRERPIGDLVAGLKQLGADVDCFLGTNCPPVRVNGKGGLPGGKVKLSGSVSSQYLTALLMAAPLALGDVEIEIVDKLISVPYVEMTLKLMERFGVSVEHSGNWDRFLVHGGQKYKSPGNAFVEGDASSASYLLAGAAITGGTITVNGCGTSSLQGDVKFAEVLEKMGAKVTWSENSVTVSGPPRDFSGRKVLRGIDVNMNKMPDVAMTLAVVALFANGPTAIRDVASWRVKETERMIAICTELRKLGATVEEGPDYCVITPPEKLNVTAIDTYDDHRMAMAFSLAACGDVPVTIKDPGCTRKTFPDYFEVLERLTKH

Q: With `C=C(OP(=O)(O)O)C(=O)O` [PEP, phosphoenolpyruvate] as the compound, how does the kcat/Km ([1]; PEP, pH 7.5, 1 mM S3P) read?
A: 215000 M⁻¹ s⁻¹

Q: What about the kcat/Km ([2]; PEP, pH 7.5, 1 mM S3P) of the same compound?
A: 74100 M⁻¹ s⁻¹

Q: With `O=C(O)CNCP(=O)(O)O` [glyphosate, N-(phosphonomethyl)glycine] as the compound, how does the IC50 [1] read?
A: ~20 µM

Q: And the IC50 [2]?
A: ~20 µM
